Read-outs that look alike come from different tables or passages of the source.
Key:
Assay in all cases: Glasshouse assay for herbicidal activity (pre- and post-emergence), percentage phytotoxicity
Type in all cases: in vivo
Lolium perenne (LOLPE) = settings: Lolium perenne
Procedure: (§1) Test—Glasshouse Assay for Herbicidal Activity
(§2) Seeds of a variety of monocotyledonous and dicotyledonous test plants are sown in standard soil in pots. The plants are cultivated for one day (for pre-emergence (PRE)) or for about 12 days (for post-emergence (POST)) under controlled conditions in a glasshouse (warm climate species at 24/18° C., cool climate species at 20/16° C., both at day/night; 16 hours light; 65% humidity).
(§3) The test plants are then grown on, in a glasshouse (greenhouse) under controlled conditions (warm climate species at 24/18° C., cool climate species at 20/16° C., both at day/night; 16 hours light; 65% humidity) and are watered twice daily. 15 days after application of the test herbicide (15 DAA) (for post-emergence), and 20 days after application of the test herbicide (20 DAA) (for pre-emergence), the test plants are evaluated visually, and an assessed percentage phytotoxicity score is given for each herbicidal application on each plant species (with 100%=total damage to plant; 0%=no damage to plant).
(§4) The plant species tested are as follows: Alopecurus myosuroides (ALOMY), Avena fatua (AVEFA), Lolium perenne (LOLPE), Echinochloa crus-galli (ECHCG).

[1] = tested on: Echinochloa crus-galli (ECHCG); settings: Echinochloa crus-galli
Procedure: as §1, §2, §3, §4

[2] = tested on: Alopecurus myosuroides (ALOMY); settings: Alopecurus myosuroides
Procedure: as §1, §2, §3, §4

Avena fatua (AVEFA) = settings: Avena fatua
Procedure: as §1, §2, §3, §4

[3] = post-emergence, 360 h, 250 g/ha, post-emergence, 15 DAA, visual assessment (100%=total damage, 0%=no damage), read-out: Post-emergence herbicidal activity (percentage phytotoxicity) LOLPE POST
[4] = pre-emergence, 480 h, 250 g/ha, pre-emergence, 20 DAA, visual assessment (100%=total damage, 0%=no damage), read-out: Pre-emergence herbicidal activity (percentage phytotoxicity) LOLPE PRE
[5] = post-emergence, 360 h, 250 g/ha, post-emergence, 15 DAA, visual assessment (100%=total damage, 0%=no damage), read-out: Post-emergence herbicidal activity (percentage phytotoxicity) ECHCG POST
[6] = pre-emergence, 480 h, 250 g/ha, pre-emergence, 20 DAA, visual assessment (100%=total damage, 0%=no damage), read-out: Pre-emergence herbicidal activity (percentage phytotoxicity) ECHCG PRE
[7] = post-emergence, 360 h, 250 g/ha, post-emergence, 15 DAA, visual assessment (100%=total damage, 0%=no damage), read-out: Post-emergence herbicidal activity (percentage phytotoxicity) ALOMY POST
[8] = pre-emergence, 480 h, 250 g/ha, pre-emergence, 20 DAA, visual assessment (100%=total damage, 0%=no damage), read-out: Pre-emergence herbicidal activity (percentage phytotoxicity) ALOMY PRE
[9] = post-emergence, 360 h, 250 g/ha, post-emergence, 15 DAA, visual assessment (100%=total damage, 0%=no damage), read-out: Post-emergence herbicidal activity (percentage phytotoxicity) AVEFA POST
[10] = pre-emergence, 480 h, 250 g/ha, pre-emergence, 20 DAA, visual assessment (100%=total damage, 0%=no damage), read-out: Pre-emergence herbicidal activity (percentage phytotoxicity) AVEFA PRE

## CCCNC(=O)CC1CC(=O)C(c2c(C)cc(Br)cc2C)C1=O (stereo not shown) [Compound B145]
Lolium perenne (LOLPE); [3]
  pest or weed control at 250 g/ha: 90%
Lolium perenne (LOLPE); [4]
  pest or weed control at 250 g/ha: 90%
[1]; [5]
  pest or weed control at 250 g/ha: 80%
[1]; [6]
  pest or weed control at 250 g/ha: 80%
[2]; [7]
  pest or weed control at 250 g/ha: 80%
[2]; [8]
  pest or weed control at 250 g/ha: 70%
Avena fatua (AVEFA); [9]
  pest or weed control at 250 g/ha: 90%
Avena fatua (AVEFA); [10]
  pest or weed control at 250 g/ha: 60%

## C=CCCNC(=O)CC1CC(=O)C(c2c(C)cc(-c3ncc(Cl)cc3F)cc2C)C1=O (stereo not shown) [Compound A111]
Lolium perenne (LOLPE); post-emergence, 360 h, Rate 250 g/ha, post-emergence, assessed visually 15 DAA, 100%=total damage, 0%=no damage, read-out: Post-emergence herbicidal activity (percentage phytotoxicity) LOLPE POST
  pest or weed control at 250 g/ha: 100%
Lolium perenne (LOLPE); pre-emergence, 480 h, Rate 250 g/ha, pre-emergence, assessed visually 20 DAA, 100%=total damage, 0%=no damage, read-out: Pre-emergence herbicidal activity (percentage phytotoxicity) LOLPE PRE
  pest or weed control at 250 g/ha: 100%
[1]; post-emergence, 360 h, Rate 250 g/ha, post-emergence, assessed visually 15 DAA, 100%=total damage, 0%=no damage, read-out: Post-emergence herbicidal activity (percentage phytotoxicity) ECHCG POST
  pest or weed control at 250 g/ha: 100%
[1]; pre-emergence, 480 h, Rate 250 g/ha, pre-emergence, assessed visually 20 DAA, 100%=total damage, 0%=no damage, read-out: Pre-emergence herbicidal activity (percentage phytotoxicity) ECHCG PRE
  pest or weed control at 250 g/ha: 100%
[2]; post-emergence, 360 h, Rate 250 g/ha, post-emergence, assessed visually 15 DAA, 100%=total damage, 0%=no damage, read-out: Post-emergence herbicidal activity (percentage phytotoxicity) ALOMY POST
  pest or weed control at 250 g/ha: 100%
[2]; pre-emergence, 480 h, Rate 250 g/ha, pre-emergence, assessed visually 20 DAA, 100%=total damage, 0%=no damage, read-out: Pre-emergence herbicidal activity (percentage phytotoxicity) ALOMY PRE
  pest or weed control at 250 g/ha: 90%
Avena fatua (AVEFA); post-emergence, 360 h, Rate 250 g/ha, post-emergence, assessed visually 15 DAA, 100%=total damage, 0%=no damage, read-out: Post-emergence herbicidal activity (percentage phytotoxicity) AVEFA POST
  pest or weed control at 250 g/ha: 100%
Avena fatua (AVEFA); pre-emergence, 480 h, Rate 250 g/ha, pre-emergence, assessed visually 20 DAA, 100%=total damage, 0%=no damage, read-out: Pre-emergence herbicidal activity (percentage phytotoxicity) AVEFA PRE
  pest or weed control at 250 g/ha: 90%

## Cc1cc(Br)cc(C)c1C1C(=O)CC(CC(=O)NCC2CC2(Cl)Cl)C1=O (stereo not shown) [Compound B141]
Lolium perenne (LOLPE); [3]
  pest or weed control at 250 g/ha: 80%
Lolium perenne (LOLPE); [4]
  pest or weed control at 250 g/ha: 80%
[1]; [5]
  pest or weed control at 250 g/ha: 80%
[1]; [6]
  pest or weed control at 250 g/ha: 70%
[2]; [7]
  pest or weed control at 250 g/ha: 80%
[2]; [8]
  pest or weed control at 250 g/ha: 90%
Avena fatua (AVEFA); [9]
  pest or weed control at 250 g/ha: 90%
Avena fatua (AVEFA); [10]
  pest or weed control at 250 g/ha: 60%

## Cc1cc(-c2ncc(F)cc2F)cc(C)c1C1C(=O)CC(CC(=O)NOCc2ccccc2)C1=O (stereo not shown) [Compound B402]
Lolium perenne (LOLPE); post-emergence, 360 h, Rate 250 g/ha, post-emergence, visual assessment 15 DAA, 100%=total damage, 0%=no damage, read-out: Post-emergence herbicidal activity (percentage phytotoxicity) LOLPE POST
  pest or weed control at 250 g/ha: 90%
Lolium perenne (LOLPE); pre-emergence, 480 h, Rate 250 g/ha, pre-emergence, visual assessment 20 DAA, 100%=total damage, 0%=no damage, read-out: Pre-emergence herbicidal activity (percentage phytotoxicity) LOLPE PRE
  pest or weed control at 250 g/ha: 80%
[1]; post-emergence, 360 h, Rate 250 g/ha, post-emergence, visual assessment 15 DAA, 100%=total damage, 0%=no damage, read-out: Post-emergence herbicidal activity (percentage phytotoxicity) ECHCG POST
  pest or weed control at 250 g/ha: 100%
[1]; pre-emergence, 480 h, Rate 250 g/ha, pre-emergence, visual assessment 20 DAA, 100%=total damage, 0%=no damage, read-out: Pre-emergence herbicidal activity (percentage phytotoxicity) ECHCG PRE
  pest or weed control at 250 g/ha: 80%
[2]; post-emergence, 360 h, Rate 250 g/ha, post-emergence, visual assessment 15 DAA, 100%=total damage, 0%=no damage, read-out: Post-emergence herbicidal activity (percentage phytotoxicity) ALOMY POST
  pest or weed control at 250 g/ha: 90%
[2]; pre-emergence, 480 h, Rate 250 g/ha, pre-emergence, visual assessment 20 DAA, 100%=total damage, 0%=no damage, read-out: Pre-emergence herbicidal activity (percentage phytotoxicity) ALOMY PRE
  pest or weed control at 250 g/ha: 60%
Avena fatua (AVEFA); post-emergence, 360 h, Rate 250 g/ha, post-emergence, visual assessment 15 DAA, 100%=total damage, 0%=no damage, read-out: Post-emergence herbicidal activity (percentage phytotoxicity) AVEFA POST
  pest or weed control at 250 g/ha: 100%
Avena fatua (AVEFA); pre-emergence, 480 h, Rate 250 g/ha, pre-emergence, visual assessment 20 DAA, 100%=total damage, 0%=no damage, read-out: Pre-emergence herbicidal activity (percentage phytotoxicity) AVEFA PRE
  pest or weed control at 250 g/ha: 70%

## C=CCNC(=O)CC1CC(=O)C(c2c(C)cc(OCC(F)(F)F)cc2CC)C1=O (stereo not shown) [Compound B218]
Lolium perenne (LOLPE); post-emergence, 360 h, POST-emergence, rate 250 g/ha, visual score 15 DAA (100%=total damage, 0%=no damage), read-out: Post-emergence herbicidal activity (percentage phytotoxicity) LOLPE POST
  pest or weed control at 250 g/ha: 100%
Lolium perenne (LOLPE); pre-emergence, 480 h, PRE-emergence, rate 250 g/ha, visual score 20 DAA (100%=total damage, 0%=no damage), read-out: Pre-emergence herbicidal activity (percentage phytotoxicity) LOLPE PRE
  pest or weed control at 250 g/ha: 100%
[1]; post-emergence, 360 h, POST-emergence, rate 250 g/ha, visual score 15 DAA (100%=total damage, 0%=no damage), read-out: Post-emergence herbicidal activity (percentage phytotoxicity) ECHCG POST
  pest or weed control at 250 g/ha: 100%
[1]; pre-emergence, 480 h, PRE-emergence, rate 250 g/ha, visual score 20 DAA (100%=total damage, 0%=no damage), read-out: Pre-emergence herbicidal activity (percentage phytotoxicity) ECHCG PRE
  pest or weed control at 250 g/ha: 100%
[2]; post-emergence, 360 h, POST-emergence, rate 250 g/ha, visual score 15 DAA (100%=total damage, 0%=no damage), read-out: Post-emergence herbicidal activity (percentage phytotoxicity) ALOMY POST
  pest or weed control at 250 g/ha: 100%
[2]; pre-emergence, 480 h, PRE-emergence, rate 250 g/ha, visual score 20 DAA (100%=total damage, 0%=no damage), read-out: Pre-emergence herbicidal activity (percentage phytotoxicity) ALOMY PRE
  pest or weed control at 250 g/ha: 100%
Avena fatua (AVEFA); post-emergence, 360 h, POST-emergence, rate 250 g/ha, visual score 15 DAA (100%=total damage, 0%=no damage), read-out: Post-emergence herbicidal activity (percentage phytotoxicity) AVEFA POST
  pest or weed control at 250 g/ha: 100%
Avena fatua (AVEFA); pre-emergence, 480 h, PRE-emergence, rate 250 g/ha, visual score 20 DAA (100%=total damage, 0%=no damage), read-out: Pre-emergence herbicidal activity (percentage phytotoxicity) AVEFA PRE
  pest or weed control at 250 g/ha: 90%

From patent publication US10206394B2, “Herbicidal compounds” (Syngenta Participations AG, priority 2014, dated 2019)
